One experiment addresses T1, Endothelin-1 receptor (Homo sapiens, UniProt P25101).
T1 sequence (P25101 whole entry): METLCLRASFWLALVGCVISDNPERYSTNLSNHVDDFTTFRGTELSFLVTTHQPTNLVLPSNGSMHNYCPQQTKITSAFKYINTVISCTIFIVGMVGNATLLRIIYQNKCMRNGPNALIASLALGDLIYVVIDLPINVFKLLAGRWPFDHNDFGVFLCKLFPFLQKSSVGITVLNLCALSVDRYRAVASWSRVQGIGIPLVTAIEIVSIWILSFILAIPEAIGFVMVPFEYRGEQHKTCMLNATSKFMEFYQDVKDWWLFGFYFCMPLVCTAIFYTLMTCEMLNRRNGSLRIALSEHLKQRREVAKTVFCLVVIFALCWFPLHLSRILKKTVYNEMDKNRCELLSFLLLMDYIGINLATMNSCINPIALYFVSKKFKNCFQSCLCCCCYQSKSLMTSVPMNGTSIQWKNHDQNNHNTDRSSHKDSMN
As to the kind of experiment: Displacement of [125I]-labeled ET-1 from human cloned endothelin A (ETA) receptor. A general note: Loss of bound radioactivity is the signal in a displacement assay; it reports binding, not function.

Experiment [1] addresses Endothelin receptor, ET-A/ET-B (Homo sapiens) (UniProt P24530+P25101). As to the kind of experiment: Ratio of binding affinity at Endothelin-A receptors compared to Endothelin-B receptors. It is filed as protein assay.
In experiment [2] the target is T2, Endothelin receptor type B (Homo sapiens, UniProt P24530).
T2 sequence (P24530 whole entry): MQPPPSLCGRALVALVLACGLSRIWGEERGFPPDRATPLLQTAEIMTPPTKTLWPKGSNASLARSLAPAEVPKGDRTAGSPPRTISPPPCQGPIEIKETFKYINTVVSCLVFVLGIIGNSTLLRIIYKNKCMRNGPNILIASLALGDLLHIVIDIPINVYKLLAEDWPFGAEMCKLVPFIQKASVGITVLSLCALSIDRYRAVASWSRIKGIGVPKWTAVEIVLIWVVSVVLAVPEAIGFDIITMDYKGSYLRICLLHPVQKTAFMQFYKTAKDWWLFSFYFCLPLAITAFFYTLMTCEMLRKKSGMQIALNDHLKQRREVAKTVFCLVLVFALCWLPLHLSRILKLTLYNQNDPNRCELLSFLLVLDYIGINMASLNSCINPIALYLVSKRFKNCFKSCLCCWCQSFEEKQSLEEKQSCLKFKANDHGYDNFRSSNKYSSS
Put plainly: Binding affinity towards human cloned endothelin B receptor by [125I]ET1 displacement.

We go through 24 molecules from ChEMBL document CHEMBL1135360, “The design and synthesis of a novel series of indole derived selective ET(A) antagonists” (Bioorg Med Chem Lett, 2002).

The IC50 is the concentration that gives 50% inhibition. High values mean lower potency, low ones higher potency.

`CC(C)c1ccc(S(=O)(=O)NC(=O)C(c2ccc3c(c2)OCO3)c2c[nH]c3cc(C(=O)O)ccc23)cc1` (stereo unspecified): the concentration for half-maximal inhibition (IC50) on Endothelin-1 receptor was 31 nM.

In the case of `Cn1cc(C(C(=O)NS(=O)(=O)c2ccccc2)c2ccc3c(c2)OCO3)c2ccc(C(N)=O)cc21` (stereo unspecified), the Ratio in experiment [1] turned out to be 184. Besides, the results for the half-maximal inhibitory concentration (IC50) (at Endothelin-1 receptor; in experiment [2]) were 12 nM and 2570 nM, respectively.

Regarding `COc1ccc(S(=O)(=O)NC(=O)C(c2ccc3c(c2)OCO3)c2cn(C)c3cc(C(N)=O)ccc23)cc1` (stereo unspecified), in experiment [1], the Ratio turned out to be 34. Also, the IC50 on Endothelin-1 receptor stood at 2.8 nM; in experiment [2], 94 nM.

For `COc1cc(OC)nc(O[C@H](C(=O)O)C(OC)(c2ccccc2)c2ccccc2)n1` [DARUSENTAN], the IC50 worked out at 0.8 nM at Endothelin-1 receptor and 16 nM in experiment [2].

`COC(=O)c1ccc2c(C(C(=O)NS(=O)(=O)c3ccc(C(C)C)cc3)c3ccc4c(c3)OCO4)cn(C)c2c1` (stereo unspecified) showed a half-inhibitory concentration (IC50) on Endothelin-1 receptor of 100 nM.

Turning to `CC(C)c1ccc(S(=O)(=O)NC(=O)C(c2ccc3c(c2)OCO3)c2cn(C)c3cc(C#N)ccc23)cc1` (stereo unspecified), on Endothelin-1 receptor, the half-inhibitory concentration (IC50) came out at 61 nM.

On to `CCn1cc(C(C(=O)NS(=O)(=O)c2ccc(C(C)C)cc2)c2ccc3c(c2)OCO3)c2ccc(C(=O)O)cc21` (stereo unspecified), for which the Ratio in experiment [1] is 68.8. Moreover, the IC50 was found to be 32 nM on Endothelin-1 receptor and 2200 nM in experiment [2].

Turning to `Cn1cc(C(C(=O)NS(=O)(=O)c2ccc(C(F)(F)F)cc2)c2ccc3c(c2)OCO3)c2ccc(C(N)=O)cc21` (stereo unspecified), the Ratio in experiment [1] came to 35. For the same molecule, the IC50 at Endothelin-1 receptor was 6.5 nM; in experiment [2], 228 nM.

Turning to `Cc1ccc(S(=O)(=O)NC(=O)C(c2ccc3c(c2)OCO3)c2cn(C)c3cc(C(N)=O)ccc23)cc1` (stereo unspecified), the Ratio in experiment [1] is 430. The IC50 on Endothelin-1 receptor was found to be 1.8 nM; in experiment [2] it was 774 nM.

For the molecule `CC(C)c1ccc(S(=O)(=O)NC(=O)C(c2ccc3c(c2)OCO3)c2cn(C)c3cc(C(=O)O)ccc23)cc1` (stereo unspecified), in experiment [1], the Ratio was 68.2. Besides, the concentration for half-maximal inhibition (IC50) on Endothelin-1 receptor came to 22 nM; in experiment [2], 1500 nM.

In the case of `CC(C)c1ccc(S(=O)(=O)NC(=O)C(c2ccc3c(c2)OCO3)c2cn(C)c3cc(CO)ccc23)cc1` (stereo unspecified), the Ratio in experiment [1] was found to be 23.7. The IC50 was found to be 19 nM at Endothelin-1 receptor and 450 nM in experiment [2].

On to `Cn1cc(C(C(=O)NS(=O)(=O)c2ccccc2C(=O)O)c2ccc3c(c2)OCO3)c2ccc(C(N)=O)cc21` (stereo unspecified), for which, in experiment [1], the Ratio was 272. The IC50 came out at 3.1 nM at Endothelin-1 receptor and 846 nM in experiment [2].

On Endothelin-1 receptor, `CC(C)c1ccc(S(=O)(=O)NC(=O)C(c2ccc3c(c2)OCO3)c2cn(C)c3cc(-c4nn[nH]n4)ccc23)cc1` (stereo unspecified) had an IC50 of 35 nM.

Regarding `Cc1ccccc1S(=O)(=O)NC(=O)C(c1ccc2c(c1)OCO2)c1cn(C)c2cc(C(N)=O)ccc12` (stereo unspecified), in experiment [1], the Ratio was found to be 203. Further, the half-maximal inhibitory concentration (IC50) on Endothelin-1 receptor was 5.2 nM; in experiment [2], 1060 nM.

Turning to `CC(C)c1ccc(S(=O)(=O)NC(=O)C(c2ccc3c(c2)OCO3)c2cn(C)c3cc(CN)ccc23)cc1` (stereo unspecified), in experiment [1], the Ratio worked out at 5.4. For the same molecule, the IC50 on Endothelin-1 receptor came out at 38 nM; in experiment [2] it was 204 nM.

`CCn1cc(C(C(=O)NS(=O)(=O)c2ccc(C(C)C)cc2)c2ccc3c(c2)OCO3)c2ccc(C(=O)NC)cc21` (stereo unspecified): in experiment [1], the Ratio was determined as 7. For the same molecule, the IC50 is 30 nM at Endothelin-1 receptor and 210 nM in experiment [2].

As to `Cn1cc(C(C(=O)NS(=O)(=O)c2ccc(Cl)cc2)c2ccc3c(c2)OCO3)c2ccc(C(N)=O)cc21` (stereo unspecified), in experiment [1], the Ratio turned out to be 146. Further, the values for the IC50 (at Endothelin-1 receptor; in experiment [2]) were 7.5 nM and 1100 nM, respectively.

Turning to `COc1ccccc1S(=O)(=O)NC(=O)C(c1ccc2c(c1)OCO2)c1cn(C)c2cc(C(N)=O)ccc12` (stereo unspecified), in experiment [1], the Ratio came to 62. The values for the IC50 (on Endothelin-1 receptor; in experiment [2]) were 5 nM and 310 nM, respectively.

Consider `COc1cc(C)ccc1S(=O)(=O)NC(=O)C(c1ccc2c(c1)OCO2)c1cn(C)c2cc(C(N)=O)ccc12` (stereo unspecified), for which, in experiment [1], the Ratio was found to be 275. The half-maximal inhibitory concentration (IC50) on Endothelin-1 receptor was found to be 1.1 nM; in experiment [2] it was 302 nM.

`CCn1cc(C(C(=O)NS(=O)(=O)c2ccc(C(C)C)cc2)c2ccc3c(c2)OCO3)c2ccc(C(=O)OC)cc21` (stereo unspecified) had a 50% inhibitory concentration (IC50) on Endothelin-1 receptor of 210 nM.

On to `CCOc1cc(C)ccc1S(=O)(=O)NC(=O)C(c1ccc2c(c1)OCO2)c1cn(C)c2cc(C(N)=O)ccc12` (stereo unspecified), for which the Ratio in experiment [1] is 722. The IC50 at Endothelin-1 receptor was 0.55 nM; in experiment [2] it was 397 nM.

For `CCn1cc(C(C(=O)NS(=O)(=O)c2ccc(C(C)C)cc2)c2ccc3c(c2)OCO3)c2ccc(C(N)=O)cc21` (stereo unspecified), the Ratio in experiment [1] was 19.7. The 50% inhibitory concentration (IC50) at Endothelin-1 receptor was determined as 3.5 nM; in experiment [2], 68 nM.

On to `CCn1cc(C(C(=O)NS(=O)(=O)c2ccc(C(C)C)cc2)c2ccc3c(c2)OCO3)c2ccc(C(=O)N(C)C)cc21` (stereo unspecified), for which the Ratio in experiment [1] stood at 6.6. Also, the IC50 is 72 nM at Endothelin-1 receptor and 474 nM in experiment [2].

As to `CC(C)c1ccc(S(=O)(=O)NC(=O)C(c2ccc3c(c2)OCO3)c2cn(C)c3cc(C(N)=O)ccc23)cc1` (stereo unspecified), the Ratio in experiment [1] came out at 14.8. Besides, the IC50 stood at 2.3 nM on Endothelin-1 receptor and 34 nM in experiment [2].
